Where two headings read alike, the source gives them in different places. A value given as a limit tells only on which side of the number the result lay.

The target of the assay is Human Factor D (Homo sapiens (Human), UniProt P00746). The assay can be described thus: Human Factor D Assay. The class given is biochemical. The gist of the method:
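Thioesterase activity monitored with Z-L-Lys-SBzl plus Ellman's reagent (DTNB), each 100 μM final, after 5 min room-temperature compound preincubation of 80 nM human serum Factor D in pH 7.5 Tris (50 mM)/1M NaCl.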

Setting [1] is: Human Factor D assay of Example 8, Table 2, read-out: IC50.
[2] abbreviates: Human Factor D, Table 3, read-out: IC50.
Where [3] appears, read: Table 3, Human Factor D 80 nM, substrate Z-L-Lys-SBzl, read-out: IC50 (Stars).

Chain of Human Factor D (P00746 26-253): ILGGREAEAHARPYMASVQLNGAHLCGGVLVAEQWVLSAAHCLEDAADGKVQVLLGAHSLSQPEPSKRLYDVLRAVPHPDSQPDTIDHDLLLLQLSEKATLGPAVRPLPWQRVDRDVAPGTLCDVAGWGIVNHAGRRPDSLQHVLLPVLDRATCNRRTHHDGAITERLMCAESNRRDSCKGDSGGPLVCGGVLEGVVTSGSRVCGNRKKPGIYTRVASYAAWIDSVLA

For `CC(=O)c1cn(CC(=O)N2C[C@H](F)C[C@H]2C(=O)Nc2cccc(Cl)n2)c2ccc(-c3cnc4ccnn4c3)cc12` [Compound 223, (2S,4R)-1-(2-(3-acetyl-5-(pyrazolo[1,5-a]pyrimidin-6-yl)-1H-indol-1-yl)acetyl)-N-(6-chloropyridin-2-yl)-4-fluoropyrrolidine-2-carboxamide], the IC50 under setting [1] was under 1000 nM.

With `CC(=O)c1nn(CC(=O)N2C[C@H](F)C[C@H]2C(=O)Nc2cc(Cl)cc(Br)n2)c2ccc(-c3cnc4cc(C)nn4c3)cc12` [Compound 676, (2S,4R)-1-(2-(3-acetyl-5-(2-methylpyrazolo[1,5-a]pyrimidin-6-yl)-1H-indazol-1-yl)acetyl)-N-(6-bromo-4-chloropyridin-2-yl)-4-fluoropyrrolidine-2-carboxamide], the IC50 under setting [2] is under 1000 nM.

On to `CC(=O)c1nn(CC(=O)N2C[C@H](F)C[C@H]2C(=O)Nc2cccc(Br)n2)c2ccc(-c3cnc4cc(C5CC5)nn4c3)cc12` [Compound 674, (2S,4R)-1-(2-(3-Acetyl-5-(2-cyclopropylpyrazolo[1,5-a]pyrimidin-6-yl)-1H-indazol-1-yl)acetyl)-N-(6-bromopyridin-2-yl)-4-fluoropyrrolidine-2-carboxamide], for which, under setting [2], the IC50 is under 1000 nM.

On to `CC(=O)c1nn(CC(=O)N2[C@@H]3C[C@@H]3C[C@H]2C(=O)Nc2cnc(C)c(Br)n2)c2ccc(-c3cnc4ccnn4c3)cc12` [Compound 667, (1R,3S,5R)-2-(2-(3-Acetyl-5-(pyrazolo[1,5-a]pyrimidin-6-yl)-1H-indazol-1-yl)acetyl)-N-(6-bromo-5-methylpyrazin-2-yl)-2-azabicyclo[3.1.0]hexane-3-carboxamide], for which the IC50 under setting [2] was under 1000 nM.

With `CC(=O)c1cn(CC(=O)N2C[C@H](F)C[C@H]2C(=O)Nc2cccc(Br)n2)c2ccc(-c3cnc4cc(C)nn4c3)cc12` [Compound 277, (2S,4R)-1-(2-(3-acetyl-5-(2-methylpyrazolo[1,5-a]pyrimidin-6-yl)-1H-indol-1-yl)acetyl)-N-(6-bromopyridin-2-yl)-4-fluoropyrrolidine-2-carboxamide], the IC50 under setting [1] was under 1000 nM.

On to `CC(=O)c1nn(CC(=O)N2C[C@H](F)C[C@H]2C(=O)Nc2nn(CC(F)(F)F)cc2Cl)c2ccc(-c3cnc(C)nc3)cc12` [Compound 430, (2S,4R)-1-(2-(3-Acetyl-5-(2-methylpyrimidin-5-yl)-1H-indazol-1-yl)acetyl)-N-(4-chloro-1-(2,2,2-trifluoroethyl)-1H-pyrazol-3-yl)-4-fluoropyrrolidine-2-carboxamide], for which the IC50 under setting [3] was under 1000 nM.

Regarding `CC(=O)c1cn(CC(=O)N2C[C@H](F)C[C@H]2C(=O)Nc2cccc(-c3ccccc3Cl)c2F)c2ccc(-c3cnc(O[C@@H]4CO[C@H]5[C@@H]4OC[C@H]5O)nc3)cc12` [Compound 333, (2S,4R)-1-(2-(3-acetyl-5-(2-(((3R,3aR,6R,6aR)-6-hydroxyhexahydrofuro [3,2-b]furan-3-yl)oxy)pyrimidin-5-yl)-1H-indol-1-yl)acetyl)-N-(2′-chloro-2-fluoro-[1,1′-biphenyl]-3-yl)-4-fluoropyrrolidine-2-carboxamide], under setting [3], the IC50 is under 1000 nM.

With `COc1ncc(-c2ccc3c(c2)c(C(C)=O)nn3CC(=O)N2C[C@H](F)C[C@H]2C(=O)Nc2nc(Br)ccc2C)cn1` [Compound 436, (2S,4R)-1-(2-(3-Acetyl-5-(2-methoxypyrimidin-5-yl)-1H-indazol-1-yl)acetyl)-N-(6-bromo-3-methylpyridin-2-yl)-4-fluoropyrrolidine-2-carboxamide], the IC50 under setting [3] is under 1000 nM.

In the case of `CC(=O)c1cn(CC(=O)N2C[C@H](F)C[C@H]2C(=O)Nc2ccc(F)c(-c3nnc4n3CCCCC4)c2)c2ccc(-c3ccnnc3)cc12` [Compound 92, (2S,4R)-1-(2-(3-acetyl-5-(pyridazin-4-yl)-1H-indol-1-yl)acetyl)-4-fluoro-N-(4-fluoro-3-(6,7,8,9-tetrahydro-5H-[1,2,4]triazolo[4,3-a]azepin-3-yl)phenyl) pyrrolidine-2-carboxamide], for the setting “Human Factor D 80 nM, substrate Z-L-Lys-SBzl, read-out: IC50”, the IC50 is under 1000 nM.

These data come from US10287301B2 (Achillion Pharmaceuticals, Inc., priority 2015, dated 2019).
